Data on one compound can be found in US20090042894A1, “NOVEL SPECIES OF ACROCARPOSPORA, A METHOD OF PREPARING IODININ, AND THE USES OF IODININ” (FOOD INDUSTRY RESEARCH AND DEVELOPMENT INSTITUTE, priority 2007, published 2009).

Common to all, as to assay type: cell-based
Holding throughout (settings): iodinin 10 μg/ml, 72 hours

The subject of assay [1] is HepG2 (Human hepatoblastoma). The assay is described as follows: MTT assay, cytotoxic effect on HepG2 cells. On the procedure:
(§1) Cell growth inhibitory effects were determined by an MTT assay after treating the cell lines with 2, 5, and 10 μg/ml of iodinin for 72 hours. Mean±SE of four independent experiments are shown. The cytotoxic activity of the compound iodinin was tested in vitro in MRC-5, AGS, HeLa, HepG2 and MCF-7 cell lines.
(§2) MRC-5 (embryonal lung, normal, human, BCRC60023), AGS (Human gastric adenocarcinoma, BCRC 60102), HeLa (Human cervical epithelioid carcinoma, BCRC 60005), HepG2 (Human hepatoblastoma, BCRC 60177), and MCF7 (human breast adenocarcinoma, BCRC 60436) were purchased from BCRC, Food Industry Research and Development Institute, Taiwan. […]
(§3) The cytotoxic activities of the compound, iodinin, against all cell lines were assayed by a modified MTT [3-(4,5-dimethylthiazole-2-yl)-2,5-diphenyltetrazolium bromide] […] After 3 days of incubation, the cell numbers for each of the cell lines were determined by the following MTT assay: 20 μl of 1 mg/ml of MTT were added to each well of the plates, and the plates were then incubated at 37° C. for 5 hours. Formazan crystals were redissolved in 100 μl of DMSO (Merck) for 10 minutes via shaking, and the plates were read immediately on an ELISA reader (Bio-Tek) at a wavelength of 540 nm (Mosmann, 1983).

For assay [2], the system named is AGS (Human gastric adenocarcinoma). The assay is described as follows: MTT assay, cytotoxic effect on AGS cells. On the procedure:
as §1, §2, §3

In assay [3] the test system is HeLa (Human cervical epithelioid carcinoma). The assay is described as follows: MTT assay, cytotoxic effect on HeLa cells. On the procedure:
as §1, §2, §3

Assay [4] has as its system MCF-7 (human breast adenocarcinoma). Put plainly: MTT assay, cytotoxic effect on MCF-7 cells. As to the method:
as §1, §2, §3

In assay [5] the test system is MRC-5 (embryonal lung, normal, human). The assay is described as follows: MTT assay, cytotoxic effect on MRC-5 cells. As to the method: as §1, §2, §3
Background: Tetrazolium assays rely on reduction of a dye to a coloured formazan, in cell work by metabolically active cells.

Turning to `[O-][n+]1c2cccc(O)c2[n+]([O-])c2cccc(O)c21` [iodinin, 1,6-phenazinediol 5,10-dioxide], the “percentage of cell survival” value was 40% in assay [1]; 8% in assay [2]; 26% in assay [3]; 29% in assay [4]; 47% in assay [5].
